Assays:
Jurkat T cell line = test: Soluble CD28 generation by PHA activated Jurkat T cell line, CD28 ELISA; assay type: cell-based, human; conditions: PHA 1-4 μg/mL, TAPI-1 and GM6001 cocktail 0.5-2 μM
Description: (§1) ELISA—Commercial ELISA kits were used for quantitation of the amount of human interferon-gamma (Biolegend, Cat. No. 430103), human interleukin 2 (Biolegend, Cat. No. 431802), human interleukin 6 (Biolegend, Cat. No. 430502), human interleukin 10 (Biolegend, Cat. No. 430603), human […] beta 1 (Biolegend, Cat. No. 436708), human interleukin beta 1 (Biolegend, Cat. No. 437004) and human CD28 (R&D system, Cat. No. DY342). Cell Proliferation and viability (MTT assay) was conducted according to manufacturer instructions (Roche, cat #11465007001). Kynurenine (IDO activity) ELISA kit was conducted according to manufacturer instructions (ImmuSmo Cat #BA E-2200).
(§2) Protease Inhibitors—Protease inhibitors were added at the indicated concentrations at the start of each experiment. In week long assays another portion of the inhibitors was added after 3 days at the final concentration. […] Where mentioned the protease cocktail was composed with a mixture of TAPI-1 and GM6001 at equimolar ratio.
(§3) PHA activation of CD4 T cells or Jurkat T cell line for the generation of soluble CD28—1×10^5 Jurkat cells or CD4 T cells were incubated with the indicated concentration of Phytohemagglutinin (Sigma, Cat. No. L8902) and various protease inhibitors for additional 5 (Jurkat) or 7 days (CD4 T cells).

human PBMCs [1] = test: Soluble CD28 generation by SEB or CMV stimulated PBMCs, human CD28 ELISA; assay type: cell-based; conditions: for sCD28 levels detected with antibodies of the invention: stimulated cells with protease inhibitors, sandwich ELISA
Description: as §1, §2
SEB or CMV activation of PBMCs for the generation of soluble CD28—0.3×10^6 PBMCs were stimulated with 0.5 ng/mL SEB (Sigma, Cat. No. S4881) for 5-7 days at 37° C. with/without the indicated concentration of various protease inhibitors in 48 well plate. Alternatively, 0.1×10^6 PBMCs were stimulated with 0.5 ng/mL SEB in 96 well plate format assay. For CMV stimulation 0.5×10^6 PBMCs were stimulated with 0.5 μg/mL CMV peptivator (Milteny Biotec, Cat. No. 130-093-435) for 2-5 days at 37° C. with/without the indicated concentration of various protease inhibitors in a 96 well plate. For continuous shedding experiments PBMC were stimulated with SEB or CMV in 24 well plate for 24 hr, cells were taken and washed three times with RPMI without stimulant and plated again in a 96 well plate. Samples were taken at indicated times and put under freezing conditions until examination for soluble CD28.

human CD4 T cells = test: Soluble CD28 generation by PHA activated CD4 T cells, CD28 ELISA; assay type: cell-based; conditions: PHA 1-4 μg/mL, TAPI-1 and GM6001 cocktail 0.5-2 μM
Description: as §1, §2, §3

human PBMCs [2] = test: Viability of SEB stimulated PBMCs with ADAM inhibitors (MTT assay); assay type: cell-based; conditions: SEB 1 ng/mL, inhibitor 0.01-1 μM, with vs without inhibitor
SCC-25 cells = test: SCC-25 cancer cell line trans-well co-culture with monocytes, proliferation; assay type: cell-based, human
Description: Co-culture of SCC-25 cancer cell line with monocytes in trans-well based assay—4×10^4 SCC-25 cells were plated on the bottom of 24 well plate with 1×10^5 monocytes placed on cell culture insert (Millipore, Cat. No. MCHT241148) with or without indicated treatments for 4 days in starvation media without serum.
Next, cells of the head and neck cancer cell line SCC-25 were incubated either alone or with monocytes in a trans-well assay. SCC-25 cells grown alone were administered IL-6 as a positive control, and indeed cell proliferation, as measured by MTT (FIG. 10D, upper) and as measured by % confluency (FIG. 10D, lower), was increased.

[3] = tested on: autologous monocytes and CD3 T cells; test: Autologous monocytes CD3 MLR with CMV peptide, cytokine secretion; assay type: cell-based, human
Description: Autologous monocytes CD3 MLR—0.5×10^6 T cells were mixed with 0.5×10^5 monocytes from same CMV reactive donor and stimulated with 0.5 μg/mL CMV peptivator for 6 days at 37° C. with/without the indicated concentration of treatments.
The mixed cells were stimulated for 5 days with CMV peptide (0.5 μg/mL) with and without increasing concentrations of recombinant human sCD28.
The MLR was run as before only with and without sCD28 and with and without an anti-PD1 antibody (MK3475, 5 μg/mL) (FIG. 9B).

human PBMCs [4] = test: SEB or CMV stimulated PBMCs with anti-PD1 and/or soluble CD28, cytokine secretion; assay type: cell-based
[5] = tested on: isolated CD3 human T cells; test: CD3 T cells stimulation with anti-CD3 OKT3, IFN gamma secretion; assay type: cell-based; conditions: OKT3 2 μg/mL, CD80-Fc 2 μg/mL, sCD28 titration
Description: T cells stimulation with OKT3—0.1×10^6 isolated CD3 T cells (from healthy donors) were stimulated with indicated amount of anti-CD3 clone OKT3 for 48-72 hr at 37° C. When stated recombinant human CD80-Fc (2 μg/mL, R&D system) was added in soluble form. Antibodies to CD28 or controls were added at the indicated concentration in soluble form.
CD80 is one of the two main ligands for mCD28 along with CD86. The extracellular domain of CD80 fused to an Fc moiety has been used as an immune stimulatory molecule and is under investigation as a cancer therapy. In order to examine the effect of sCD28 on CD80-Fc efficacy, isolated CD3 human T cells were stimulated with plate bound anti-CD3 antibody (OKT3, 2 μg/mL) in the presence of 2 μg/mL soluble recombinant human CD80-Fc.

[6] = tested on: PBMCs isolated from cancer patients; test: SEB stimulated PBMCs of cancer patients, IFN gamma secretion; assay type: cell-based, human; conditions: SEB 5 ng/mL, 3 days
human PBMCs [7] = test: Lymphocyte clustering of SEB stimulated PBMCs (IncuCyte); assay type: cell-based; conditions: SEB 1 ng/mL; human IgG control
Description: Next, human PBMCs were stimulated with SEB (1 ng/mL) without or in the presence of recombinant human CD28. Human IgG was used as control. Lymphocyte clustering, a hallmark of immune activation was monitored using the IncuCyte® S3 Live-Cell, with pictures taken every 12 hours. […] It is well established that during in-vitro immune response antigen presenting cells (APC) cluster with one another and with other cell types, and clustering is essential for the antigen specific activation of resting lymphocytes.

human PBMCs [8] = test: CMV stimulation of PBMCs with ectopic recombinant human CD28, CTLA-4, CD80; cytokine ELISA/multiplex; assay type: cell-based
[9] = tested on: H22 hepatocellular carcinoma cells; test: H22 syngeneic mouse model, tumor growth; assay type: in vivo; conditions: Balb/c mice, H22 allograft, with anti-PD-1 therapy
Source text: The closest option is to administer recombinant sCD28 to mice to mimic a situation of elevated sCD28 levels. This was investigated in a H22 syngeneic mouse model. Balb/c fully immunocompetent mice received an allograft of H22 hepatocellular carcinoma cells.

human monocytes = test: Stimulation of monocytes with recombinant human CD28 (IDO, PD-L1, PD-L2); assay type: cell-based; conditions: recombinant human CD28 10 μg/mL
Description: Flow Cytometry—Generally, cells were kept on ice during all steps. Prior to staining, 5×10^5 cells were blocked with 50 μg/mL human IgG (Sigma, Cat. No. 14506) in FACS buffer (PBS with 0.1% BSA) for 15 min. Antibodies were used at concentrations recommended by the manufacturer and incubated for 30 min. in the dark. Incubations were done in a volume of 100 μL in 96-well U bottom plates. Cells were washed twice with 200 μL of FACS buffer and transferred to FACS tubes in 150 μL of FACS buffer for analysis. Cells were analyzed on a Gallios Flow Cytometer (Beckman Coulter) using the Kaluza for Gallios Flow Cytometry Acquisition Software.
Stimulation of monocytes with recombinant human CD28—1.5×10^6 monocytes were plated at 24 well plate in RPMI medium with […] IFN gamma (R&D system, Cat. No. 285-IF) in the presence of recombinant human CD28 at the indicated concentrations for 48 hrs. The generated cell populations were tested for the indicated phenotypes by FACS analysis of relevant markers (IDO, PD-L1 and PD-L2) and by analysis of secretion of characteristic cytokines (IL-6).
The enzyme indoleamine 2,3-dioxygenase (IDO) has been implicated in immune modulation through its ability to catabolize the essential amino acid Tryptophan. It is expressed by different immune cells and also by many cancer cells. Tryptophan shortage inhibits T lymphocytes maturation and proliferation, while Kynurenine, the end product of tryptophan catabolism, is also known as immunosuppressive metabolite that promotes immune tolerance in various physiological and pathophysiological conditions. To test the effect of sCD28 on IDO, isolated human monocytes were stimulated for 48 hr with IFNγ (1000 U/mL) in the presence of control human IgG or with recombinant human CD28 (10 μg/mL). After incubation, the monocytes were stained intracellularly for human IDO (FIG. 8E). To facilitate intracellular staining the cells were fixed and permeabilized with BD Cytofix/Cytoperm Buffer Kit. […]

Compound: CC(C)C[C@H](CC(=O)NO)C(=O)N[C@@H](Cc1ccc2ccccc2c1)C(=O)N[C@@H](C)C(=O)NCCN [TAPI-1]
- amount of sCD28 in supernatant (Jurkat T cell line): diminished the amount of sCD28
- amount of sCD28 in culture (human PBMCs [1]; PBMCs stimulated with SEB or CMV, TAPI-1 and GM6001 protease inhibitor cocktail): diminish the amount of sCD28 in a dose dependent manner
- sCD28 levels detected with antibodies of the invention (human PBMCs [1]): Lower levels of sCD28
- amount of sCD28 in supernatant (human CD4 T cells): diminished the amount of sCD28

Compound: CC#CCOc1ccc(S(=O)(=O)N2CCSC(C)(C)[C@@H]2C(=O)NO)cc1 [TMI-1]
- viability of the immune cells (MTT) (human PBMCs [2]): no significant difference
- sCD28 levels detected with antibodies of the invention (human PBMCs [1]): Lower levels of sCD28

Compound: IL-6: interleukin-6 administered as a positive control
- cell proliferation (MTT, % confluency) (SCC-25 cells; SCC-25 cells grown alone): increased

Compound: MK-3475: Anti-Human PD-1 pembrolizumab [reference compound]
- IFN gamma secretion ([3]; CMV peptide 0.5 μg/mL): increased IFN gamma secretion
- TGF beta secretion ([3]; CMV peptide 0.5 μg/mL): decreased TGF beta secretion
- proinflammatory cytokine secretion (IFN gamma and IL-2) (human PBMCs [4]; PBMC culture, SEB or CMV, 3 days, MK3475 5 μg/mL): increased proinflammatory cytokine secretion

Compound: sCD28: recombinant human CD28 lacking the transmembrane and cytoplasmic domains
- IFN gamma secretion ([3]; CMV peptide 0.5 μg/mL): inhibit IFN gamma secretion
- TGF beta secretion ([3]; CMV peptide 0.5 μg/mL): increasing the secretion
- IL-1B secretion ([3]; CMV peptide 0.5 μg/mL, 5 days): increasing the secretion
- IL-10 secretion ([3]; CMV peptide 0.5 μg/mL, 5 days): increasing the secretion
- effect of MK-3475 in the presence of sCD28 ([3]; MK3475 5 μg/mL): significantly reduced
- effect on CD80-Fc activation (IFN gamma secretion) [5]: counteracted the secondary activation effect of the CD80-Fc
- effect on MK-3475 activity [6]: rendered the effect of MK-3475 nonexistent
- concentration of human IFN gamma in the supernatant ([6]; with or without MK-3475): greatly reduced
- cell proliferation (MTT, % confluency) (SCC-25 cells; SCC-25 coculture with monocytes): by far the greatest increase
- lymphocyte cluster formation (human PBMCs [7]): diminish the amount and size of cluster formation
- IFN gamma secretion (human PBMCs [8]; CMV 0.5 μg/mL): dose-dependent inhibition of IFN gamma secretion
- IL-6 secretion (human PBMCs [8]; CMV 0.5 μg/mL): increase IL-6 cytokine secretion
- interleukin-10 secretion (human PBMCs [8]; CMV 0.5 μg/mL): elevation
- CD80-Fc amount needed for immune response (human PBMCs [8]; CMV peptide 3 days, constant sCD28, CD80-Fc titration): an increased amount of CD80-Fc was required
- effect on immune activation by MK-3475 (human PBMCs [4]; sCD28 2 and 10 μg/mL with MK3475 5 μg/mL): abrogated completely this immune activation effect
- effect on anti-PD-1 therapy (tumor growth) [9]: nearly completely abrogated in two of the mice
- PD-L1 expression on monocytes (human monocytes; IFNγ 1000 U/mL 48 hours): upregulated
- PD-L2 expression on monocytes (human monocytes; IFNγ 1000 U/mL 48 hours): upregulated
- IDO expression in monocytes (human monocytes; IFNγ 1000 U/mL 48 hr): strongly enhanced IDO expression
